Tests used:
[1] = Half life in plasma of BALB/c mouse xenografted with mouse CT26 cells at 100 mg/kg, po by LC-MS/MS analysis; format: ADME, organism-based
[2] = target: T1, Myosin-IIIb (Homo sapiens) (UniProt Q8WXR4); test: Inhibition of human MYO3B at 2 uM by competition binding assay relative to control; conditions: values are per cent of control
T1 sequence (whole entry): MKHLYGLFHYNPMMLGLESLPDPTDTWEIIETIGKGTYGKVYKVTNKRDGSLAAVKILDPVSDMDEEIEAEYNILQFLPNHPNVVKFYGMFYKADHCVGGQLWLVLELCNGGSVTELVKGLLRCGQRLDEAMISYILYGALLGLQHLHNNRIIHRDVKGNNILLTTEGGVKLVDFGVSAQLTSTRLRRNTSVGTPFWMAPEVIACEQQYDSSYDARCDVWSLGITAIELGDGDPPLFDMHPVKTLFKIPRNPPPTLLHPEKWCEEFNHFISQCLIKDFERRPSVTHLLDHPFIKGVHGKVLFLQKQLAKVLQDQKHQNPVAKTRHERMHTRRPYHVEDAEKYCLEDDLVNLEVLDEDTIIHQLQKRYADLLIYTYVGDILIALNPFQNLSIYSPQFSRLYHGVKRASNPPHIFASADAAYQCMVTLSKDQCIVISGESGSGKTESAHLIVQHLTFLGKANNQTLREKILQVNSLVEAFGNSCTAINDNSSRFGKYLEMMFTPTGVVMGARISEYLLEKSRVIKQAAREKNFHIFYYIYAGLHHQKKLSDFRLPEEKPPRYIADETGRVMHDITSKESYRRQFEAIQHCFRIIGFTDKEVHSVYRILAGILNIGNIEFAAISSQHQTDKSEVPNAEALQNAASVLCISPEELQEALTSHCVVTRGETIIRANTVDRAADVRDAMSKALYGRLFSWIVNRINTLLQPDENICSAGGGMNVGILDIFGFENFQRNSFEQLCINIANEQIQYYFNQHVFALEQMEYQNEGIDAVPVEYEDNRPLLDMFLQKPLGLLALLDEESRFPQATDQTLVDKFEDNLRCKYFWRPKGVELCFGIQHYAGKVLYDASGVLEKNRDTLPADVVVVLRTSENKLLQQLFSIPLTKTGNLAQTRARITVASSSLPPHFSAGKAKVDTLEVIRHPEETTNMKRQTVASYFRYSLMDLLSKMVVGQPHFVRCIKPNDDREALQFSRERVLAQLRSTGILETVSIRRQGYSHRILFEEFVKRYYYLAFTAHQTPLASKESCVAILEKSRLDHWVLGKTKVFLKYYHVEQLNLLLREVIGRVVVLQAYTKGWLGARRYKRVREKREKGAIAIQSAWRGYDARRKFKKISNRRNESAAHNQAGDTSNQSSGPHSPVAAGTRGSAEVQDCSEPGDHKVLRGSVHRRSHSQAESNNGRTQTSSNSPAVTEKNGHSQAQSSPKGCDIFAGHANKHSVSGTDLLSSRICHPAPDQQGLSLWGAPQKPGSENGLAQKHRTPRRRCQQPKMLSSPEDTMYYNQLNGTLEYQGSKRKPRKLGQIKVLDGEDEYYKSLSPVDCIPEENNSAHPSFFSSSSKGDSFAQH

[3] = target: CDK8/Cyclin C (Homo sapiens) (UniProt P49336+P24863); test: Binding affinity to kinase tracer 236 binding to His tagged recombinant human CDK8/cyclinC assessed as half life by TR FRET based assay; format: protein-complex assay
[4] = Elimination rate constant in plasma of BALB/c mouse xenografted with mouse CT26 cells at 100 mg/kg, po by LC-MS/MS analysis; format: ADME, organism-based
[5] = target: T2, Serine/threonine-protein kinase haspin (Homo sapiens) (UniProt Q8TF76); test: Inhibition of human HASPIN at 2 uM by competition binding assay relative to control; conditions: values are per cent of control
T2 sequence (whole entry): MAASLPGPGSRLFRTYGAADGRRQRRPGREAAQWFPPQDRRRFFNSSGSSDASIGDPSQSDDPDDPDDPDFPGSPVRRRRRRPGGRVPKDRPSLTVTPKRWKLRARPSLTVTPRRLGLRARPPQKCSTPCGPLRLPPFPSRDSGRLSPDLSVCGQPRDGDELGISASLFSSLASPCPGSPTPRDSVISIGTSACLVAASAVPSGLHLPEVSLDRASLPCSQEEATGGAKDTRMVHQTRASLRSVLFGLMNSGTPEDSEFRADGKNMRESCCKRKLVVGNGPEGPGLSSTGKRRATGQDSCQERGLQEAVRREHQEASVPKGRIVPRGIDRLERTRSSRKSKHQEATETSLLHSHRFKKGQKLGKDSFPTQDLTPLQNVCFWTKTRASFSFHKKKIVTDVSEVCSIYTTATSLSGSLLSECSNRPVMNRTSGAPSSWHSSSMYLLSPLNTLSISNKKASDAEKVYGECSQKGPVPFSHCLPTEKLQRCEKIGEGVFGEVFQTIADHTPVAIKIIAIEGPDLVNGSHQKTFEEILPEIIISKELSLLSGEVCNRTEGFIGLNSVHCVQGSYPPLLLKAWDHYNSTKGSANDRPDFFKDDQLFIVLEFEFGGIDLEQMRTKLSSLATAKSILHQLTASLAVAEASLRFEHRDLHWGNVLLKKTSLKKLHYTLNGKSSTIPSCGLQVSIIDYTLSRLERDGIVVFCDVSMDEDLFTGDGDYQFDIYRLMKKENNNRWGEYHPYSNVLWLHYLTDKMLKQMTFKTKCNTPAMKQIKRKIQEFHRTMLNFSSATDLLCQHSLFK

[6] = target: Cyclin-C/Cyclin-dependent kinase 19 (Homo sapiens, UniProt Q9BWU1); test: Binding affinity to recombinant human CDK19/cyclinC assessed as dissociation constant by TR FRET based assay; format: protein-complex assay
Cyclin-C/Cyclin-dependent kinase 19, sequence (Q9BWU1 whole entry): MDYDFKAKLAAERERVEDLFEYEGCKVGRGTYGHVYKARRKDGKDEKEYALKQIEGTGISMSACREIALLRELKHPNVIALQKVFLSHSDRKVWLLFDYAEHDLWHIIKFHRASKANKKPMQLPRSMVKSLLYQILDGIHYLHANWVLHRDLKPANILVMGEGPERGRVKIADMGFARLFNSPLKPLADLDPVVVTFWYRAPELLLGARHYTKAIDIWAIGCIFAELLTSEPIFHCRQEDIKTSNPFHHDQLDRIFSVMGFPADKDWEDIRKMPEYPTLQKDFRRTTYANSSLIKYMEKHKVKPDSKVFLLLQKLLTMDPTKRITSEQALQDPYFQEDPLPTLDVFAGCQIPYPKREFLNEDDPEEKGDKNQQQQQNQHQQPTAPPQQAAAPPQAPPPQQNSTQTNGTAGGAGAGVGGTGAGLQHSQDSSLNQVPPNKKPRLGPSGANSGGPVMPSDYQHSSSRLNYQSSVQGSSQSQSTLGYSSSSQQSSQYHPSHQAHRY
Cyclin-C/Cyclin-dependent kinase 19, sequence (P24863 whole entry, further chain): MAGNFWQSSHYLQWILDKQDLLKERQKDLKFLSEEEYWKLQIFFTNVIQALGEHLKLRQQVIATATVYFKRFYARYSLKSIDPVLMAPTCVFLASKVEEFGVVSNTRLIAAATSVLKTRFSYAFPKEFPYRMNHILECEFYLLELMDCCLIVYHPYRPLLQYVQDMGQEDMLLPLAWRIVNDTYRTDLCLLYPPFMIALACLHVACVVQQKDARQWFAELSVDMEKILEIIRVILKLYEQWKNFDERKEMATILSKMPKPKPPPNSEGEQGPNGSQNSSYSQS

[7] = AUC(0-24h) in plasma of BALB/c mouse xenografted with mouse CT26 cells at 100 mg/kg, po by LC-MS/MS analysis; format: ADME, organism-based; set-up: time < 24 hr, route oral, dose 100 mg/kg; conditions: in vivo
[8] = Inhibition of NF kappa B dependent CDK8/CDK19 in HEK293 cell incubated for 3 hrs in presence of TNF-alpha by Spectra max microtitre plate reader; format: cell-based; conditions: Homo sapiens, HEK293, 3 h
[9] = AUC (0-24hrs) in tumor of BALB/c mouse xenografted with mouse CT26 cells at 2.5 mg/kg, iv by LC-MS/MS analysis; format: ADME, organism-based, Neoplasm; set-up: time < 24 hr, route intravenous, dose 2.5 mg/kg
[10] = target: Cyclin-C/Cyclin-dependent kinase 19 (Homo sapiens) (UniProt Q9BWU1+P24863); test: Binding affinity to recombinant human CDK19/cyclinC assessed as mean residence time by TR FRET based assay; format: protein-complex assay
[11] = tested on: CT26; test: Downregulation of KLF2 gene expression in BALB/c mouse xenografted with mouse CT26 cells at 100 mg/kg, po 2 to 12 hrs […]; format: functional, organism-based; conditions: time 2-12 hrs, TDE = time-dependent effect
[12] = Cmax in tumor of BALB/c mouse xenografted with mouse CT26 cells at 100 mg/kg, po by LC-MS/MS analysis; format: ADME, organism-based, Neoplasm; set-up: route oral, dose 100 mg/kg
[13] = Tmax in plasma of BALB/c mouse xenografted with mouse CT26 cells at 100 mg/kg, po by LC-MS/MS analysis; format: ADME, organism-based

half-life [1]: 3.53 h
residual binding, % of control [2]: 31%
T1/2 [3]: 9.45 min
k el [4]: 5.56e-05 s⁻¹
residual binding, % of control [5]: 29%
Kd [6]: 0.0029 µM
AUC [7]: 2182 ng·h/mL
IC50 [8]: 0.056 µM
AUC(0-t) at 24 h [9]: 6410 ng·h/mL
MRT [10]: 4.25 min
Cmax [12]: 5730 ng/mL
Tmax [13]: 12 h
SMILES: CN1CCN(C(=O)c2ccc3cc(CCNc4ccnc5ccc(C#N)cc45)ccc3c2)CC1
Activity [11]: Tde

— ChEMBL document CHEMBL5046270, “A Selective and Orally Bioavailable Quinoline-6-Carbonitrile-Based Inhibitor of CDK8/19 Mediator Kinase with Tumor-Enriched Pharmacokinetics” (J Med Chem, 2022)
